Results published in patent publication US20190300882A1, “METHODS OF TREATING NEUROBLASTOMA AND REAGENTS THEREFOR” (GARVAN INSTITUTE OF MEDICAL RESEARCH, priority 2016, published 2019).

Key:
KELLY cells [1] = experiment: Primary functional miRNA mimic screen, CellTiter-Glo cell viability; format: cell-based; conditions: miRNA mimic 25 nM alone, 144 hours post-transfection
From the text: Breast cancer cell lines (MDA-MB-231, MDA-MB-468, SK-BR-3; BT474) and prostate cancer cell lines (PC3, DU145) were obtained from American Type Culture Collection (ATCC). Neuroblastoma cell lines (KELLY, SHEP) were received from Children's Cancer Institute (CCIA). The KELLY cells were selected as a MYCN amplified neuroblastoma cell line and the SHEP cells were selected as a MYCN wild-type neuroblastoma cell line. All breast and prostate cancer cell lines were cultivated in RPMI media supplemented with 10% FCS, HEPES, and insulin. […] Each of the cell lines were reverse transfected in 384-well plate format with 25 nM of a miRNA from the Dharmacon miRNA mimic or inhibitor libraries (version 16.0) using liquid-handling robot Calliper Sciclone ALH3000 according to the conditions described in Table 3. […] Luminescence measurements were taken on the Synergy H4 high-throughput multimode microplate reader. All screens were performed in duplicates. Raw viability was normalised to a nontargeting control (OTP) or mock wells, and death genes or controls inducing varying levels of death were used to monitor transfection efficiency and to define dynamic range in each screen (FIG. 1). To define screen hits, normalised viability scores were binned in the following manner: CV1 bin included candidates with viability >=0.8; […] Only LC candidates were defined as screen hits.

SHEP cells [2] = experiment: as above; format: cell-based; conditions: miRNA mimic 25 nM alone, 144 hours post-transfection
From the text: Breast cancer cell lines (MDA-MB-231, MDA-MB-468, SK-BR-3; BT474) and prostate cancer cell lines (PC3, DU145) were obtained from American Type Culture Collection (ATCC). Neuroblastoma cell lines (KELLY, SHEP) were received from Children's Cancer Institute (CCIA). The KELLY cells were selected as a MYCN amplified neuroblastoma cell line and the SHEP cells were selected as a MYCN wild-type neuroblastoma cell line.
All breast and prostate cancer cell lines were cultivated in RPMI media supplemented with 10% FCS, HEPES, and insulin. The neuroblastoma cell lines, KELLY, SHEP, were grown in 10% FCS/RPMI and 10% FCS/DMEM, respectively.
(§1) Each of the cell lines were reverse transfected in 384-well plate format with 25 nM of a miRNA from the Dharmacon miRNA mimic or inhibitor libraries (version 16.0) using liquid-handling robot Calliper Sciclone ALH3000 according to the conditions described in Table 3. After 24 hours, media was changed using BioTek 406, and 144 hours post-transfection, cell viability was determined using CellTiter-Glo luminescent assay (Promega) at 1:2 dilution. Luminescence measurements were taken on the Synergy H4 high-throughput multimode microplate reader. All screens were performed in duplicates.
Raw viability was normalised to a nontargeting control (OTP) or mock wells, and death genes or controls inducing varying levels of death were used to monitor transfection efficiency and to define dynamic range in each screen (FIG. 1). To define screen hits, normalised viability scores were binned in the following manner: CV1 bin included candidates with viability >=0.8; CV2 bin included candidates with viability <0.8 and >0.5, and LC bin was assigned to candidates with normalised viability <=0.5. Only LC candidates were defined as screen hits.

KELLY cells [3] = experiment: Secondary validation screen of lethal miRNAs, cell viability; format: cell-based; conditions: miRNA mimic alone
Description: as §1
(§2) The secondary validation screens were performed in accordance with the genome-wide screens described in Example 1 and Example 2, respectively, with the exception that an additional MYCN-amplified neuroblastoma cell line (SK-N-DZ) was added to each screen.
(§3) Furthermore, five additional non-active miRNAs discovered to have no measureable effect across all treatment groups of the genome-wide screen (‘non-lethal’ miRNAs) were included as negative controls.

SHEP cells [4] = experiment: as above; format: cell-based; conditions: miRNA mimic alone
Description: as §1, §2, §3

[5] = system: SK-N-DZ MYCN-amplified neuroblastoma cell line; experiment: Secondary validation screen of lethal miRNAs, additional cell line, cell viability; format: cell-based; conditions: miRNA mimic alone
Description: as §1, §2, §3

KELLY cells [6] = experiment: Primary miRNA mimic screen in combination with low dose IC30 of vincristine or doxorubicin, cell viability; format: cell-based; conditions: for Primary screen Viability (% of control) Kelly DXR: miRNA mimic 25 nM + low dose IC30 doxorubicin; for Primary screen Viability (% of control) Kelly VCR: miRNA mimic 25 nM + low dose IC30 vincristine; for Primary screen Viability (% of control) Kelly Vehicle: miRNA mimic 25 nM + vehicle
Description: To systematically identify miRNAs that affect viability and survival of neuroblstoma cells in combination with chemotherapy, a further functional miRNA screen was performed using the 1200 miRNAs from the miRIDIAN miRNA mimic Library (version 16.0; Dharmacon) in combination with low dose IC30 of vincristine or doxorubicin in the two neuroblastoma cancer cell lines. In doing so, the inventors identified miRNAs which result in a lethal phenotype to neuroblastoma cells when administered in combination with low dose IC30 chemotherapy (hereinafter referred to as ‘synthetic lethal’ miRNAs). […] After 24 hours, media was changed using a BioTek 406. […] Luminescence measurements were taken on the Synergy H4 high-throughput multimode microplate reader as described in Example 1. All screens were performed in duplicates.

KELLY cells [7] = experiment: Secondary validation screen of synthetic lethal miRNAs with low dose IC30 chemotherapy, cell viability; format: cell-based; conditions: for synthetic lethality with chemotherapy: in both Kelly and SKNDZ MYCN-amplified cells, secondary screen; for Secondary screen Viability (% of control) Kelly DXR: miRNA mimic + low dose IC30 doxorubicin; for Secondary screen Viability (% of control) Kelly VCR: miRNA mimic + low dose IC30 vincristine; for Secondary screen Viability (% of control) Kelly Vehicle: miRNA mimic + vehicle
Description: (§4) KELLY cells were grown in 10% FCS/RPMI as described in Example 1 and reverse transfected in 384-well plate format with 25 nM of a miRNA from the Dharmacon microRNA mimic Library (version 16.0) using liquid-handling robot Calliper Sciclone ALH3000 according to the conditions described in Table 3. After 24 hours, media was changed using a BioTek 406. Media was again changed after 48 hours and 96 hours using a BioTek 406, and at each of those time points low dose IC30 of vincristine or doxorubicin was added to the culture. 144 hours post-transfection, cell viability was determined using CellTiter-Glo luminescent assay (Promega) at 1:2 dilution. Luminescence measurements were taken on the Synergy H4 high-throughput multimode microplate reader as described in Example 1. All screens were performed in duplicates. The experimental design and timeline for this screen are illustrated in FIGS. 5 and 6, respectively.
as §2, §3

[8] = system: SK-N-DZ MYCN-amplified neuroblastoma cell line; experiment: Secondary validation screen of synthetic lethal miRNAs with low dose IC30 chemotherapy, additional cell line; format: cell-based; conditions: for Additional cell line Viability (% of control) SKNDZ DXR: miRNA mimic + low dose IC30 doxorubicin; for Additional cell line Viability (% of control) SKNDZ VCR: miRNA mimic + low dose IC30 vincristine; for Additional cell line Viability (% of control) SKNDZ Vehicle: miRNA mimic + vehicle
Description: as §4, §2, §3

IMR-90 cells = experiment: Cell toxicity screen of synthetic lethal miRNAs in non-cancer cells; conditions: for cell viability in non-cancer cells, DXR (% of control): IMR-90, miRNA + low dose IC30 doxorubicin; for cell viability in non-cancer cells, VCR (% of control): IMR-90, miRNA + low dose IC30 vincristine; for cell viability in non-cancer cells, Media (% of control): IMR-90, miRNA alone (media)
Description: The cell toxicity screens were performed in IMR-90 cells (normal human fibroblast cells, ATCC).

Substance	Primary screen Viability (% of control) KELLY (KELLY cells [1])	Primary screen Viability (% of control) SHEP (SHEP cells [2])	Secondary screen Viability (% of control) KELLY (KELLY cells [3])	Secondary screen Viability (% of control) SHEP (SHEP cells [4])	Additional cell line Viability (% of control) SKNDZ [5]	Primary screen Viability (% of control) Kelly DXR (KELLY cells [6])	Primary screen Viability (% of control) Kelly VCR (KELLY cells [6])	Primary screen Viability (% of control) Kelly Vehicle (KELLY cells [6])	synthetic lethality with chemotherapy (KELLY cells [7])	Secondary screen Viability (% of control) Kelly DXR (KELLY cells [7])	Secondary screen Viability (% of control) Kelly VCR (KELLY cells [7])	Secondary screen Viability (% of control) Kelly Vehicle (KELLY cells [7])	Additional cell line Viability (% of control) SKNDZ DXR [8]	Additional cell line Viability (% of control) SKNDZ VCR [8]	Additional cell line Viability (% of control) SKNDZ Vehicle [8]	cell viability in non-cancer cells, DXR (% of control) (IMR-90 cells)	cell viability in non-cancer cells, VCR (% of control) (IMR-90 cells)	cell viability in non-cancer cells, Media (% of control) (IMR-90 cells)
hsa-miR-103a-2-5p (AGCUUCUUUACAGUGCUGCCUUG; chemistry not given here; listed as Homo sapiens)	26 % of control	46 % of control	39 % of control	56 % of control	52 % of control	–	–	–	–	–	–	–	–	–	–	–	–	–
hsa-miR-148b-5p (AAGUUCUGUUAUACACUCAGGC; chemistry not given here; listed as Homo sapiens)	5 % of control	20 % of control	8 % of control	34 % of control	21 % of control	–	–	–	–	–	–	–	–	–	–	–	–	–
hsa-miR-192-3p (CUGCCAAUUCCAUAGGUCACAG; chemistry not given here; listed as Homo sapiens)	42 % of control	43 % of control	54 % of control	49 % of control	97 % of control	–	–	–	–	–	–	–	–	–	–	–	–	–
hsa-miR-489 (guide GUGACAUCACAUAUACGGCAGC; chemistry not given here; listed as Homo sapiens)	5 % of control	40 % of control	4 % of control	43 % of control	33 % of control	–	–	–	–	–	–	–	–	–	–	–	–	–
hsa-miR-491-3p (guide CUUAUGCAAGAUUCCCUUCUAC; chemistry not given here; listed as Homo sapiens)	12 % of control	26 % of control	12 % of control	34 % of control	47 % of control	–	–	–	–	–	–	–	–	–	–	–	–	–
hsa-miR-515-3p (guide GAGUGCCUUCUUUUGGAGCGUU; chemistry not given here; listed as Homo sapiens)	–	–	–	–	–	38 % of control	56 % of control	84 % of control	substantial synthetic lethality	42 % of control	73 % of control	82 % of control	24 % of control	70 % of control	85 % of control	50 % of control	51 % of control	59 % of control
hsa-miR-517c-3p (guide AUCGUGCAUCCUUUUAGAGUGU; chemistry not given here; listed as Homo sapiens)	26 % of control	40 % of control	27 % of control	43 % of control	21 % of control	–	–	–	–	–	–	–	–	–	–	–	–	–
hsa-miR-542-3p (guide UGUGACAGAUUGAUAACUGAAA; chemistry not given here; listed as Homo sapiens)	6 % of control	29 % of control	20 % of control	38 % of control	28 % of control	–	–	–	–	–	–	–	–	–	–	–	–	–
hsa-miR-544a (guide AUUCUGCAUUUUUAGCAAGUUC; chemistry not given here; listed as Homo sapiens)	7 % of control	32 % of control	17 % of control	61 % of control	59 % of control	–	–	–	–	–	–	–	–	–	–	–	–	–
hsa-miR-550a-3p (guide UGUCUUACUCCCUCAGGCACAU; chemistry not given here; listed as Homo sapiens)	4 % of control	61 % of control	15 % of control	94 % of control	82 % of control	–	–	–	–	–	–	–	–	–	–	–	–	–
hsa-miR-552 (guide AACAGGUGACUGGUUAGACAA; chemistry not given here; listed as Homo sapiens)	2 % of control	36 % of control	2 % of control	47 % of control	36 % of control	–	–	–	–	–	–	–	–	–	–	–	–	–
hsa-miR-1321 (CAGGGAGGUGAAUGUGAU; chemistry not given here; listed as Homo sapiens)	–	–	–	–	–	4 % of control	18 % of control	42 % of control	substantial synthetic lethality	7 % of control	24 % of control	50 % of control	21 % of control	45 % of control	64 % of control	23 % of control	23 % of control	48 % of control
